Source: US20250099420A1, “SMALL MOLECULE MODULATORS OF GPR139 COMPLEX” (University of Florida Research Foundation, Incorporated, priority 2022, published 2025)
pEC50: −log10 of the molar value. Where two headings read alike, the source gives them in different places.

How the values were obtained:
parental HEK cells = assay: HEK parental Agonist Counterscreen Assay (non-transfected cells); format: cell-based; conditions: for Averaged Max % Response (±St. Dev.): activity relative to known control
From the text: The high control for the agonist counterscreen was Forskolin not acetylcholine.

GPR139 = biological target: T1, GPR139 (Homo sapiens, UniProt Q6DWJ6); assay: GPR139 Agonist titration / agonist counterscreen assay (calcium detection, HEK-GPR139 cells); format: cell-based; set-up: expressed in transfected cells; host or cells: HEK Aequorin cells, Maxcyte transient transfection; conditions: GPR139 Agonist Activity; for Averaged Max % Response (±St. Dev.): activity relative to known control; for pEC50: read-out: EC50
T1 sequence (Q6DWJ6 1-353): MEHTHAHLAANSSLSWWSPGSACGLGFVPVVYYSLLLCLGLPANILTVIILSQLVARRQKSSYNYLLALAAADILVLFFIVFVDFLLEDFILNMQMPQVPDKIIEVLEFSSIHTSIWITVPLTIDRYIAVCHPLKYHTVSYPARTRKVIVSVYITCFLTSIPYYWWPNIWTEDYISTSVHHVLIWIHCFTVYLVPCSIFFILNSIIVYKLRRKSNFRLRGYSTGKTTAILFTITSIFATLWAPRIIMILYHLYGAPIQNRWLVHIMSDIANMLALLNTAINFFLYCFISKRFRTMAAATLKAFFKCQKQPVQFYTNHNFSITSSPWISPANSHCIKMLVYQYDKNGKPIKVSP
Method: GPR activity was assessed using a calcium detection assay. […] Negative control samples were treated with DMSO. […] Intracellular calcium was measured using Calcium 5.

[1] = Homo sapiens, HEK293, HEK Agonist Activity, parental non-transfected HEK cells
[2] = values printed in E-notation without unit
[3] = Homo sapiens, HEK293, HEK Agonist Activity section of Table 4 (parental HEK counterscreen)
[4] = HEK Agonist Activity section of Table 4 (parental HEK counterscreen)

## CC(CCc1ccccc1)NC(=O)Cn1cc2c(n1)CCCC2 (stereo not drawn) [SR-01000137757]
Parental HEK cells; HEK Agonist Activity
  Lipophilic Efficiency (logD): 1.35
  Lipophilic Efficiency (logP): 1.35
  Averaged Max % Response (±St. Dev.): −12.95 ± 5.94%
Parental HEK cells; [1]
  pEC50: < 4.85
GPR139
  Averaged Max % Response (±St. Dev.): 160.07 ± 33.89%
GPR139; based on logD
  Lipophilic Efficiency (logD): 4.32
GPR139; based on logP
  Lipophilic Efficiency (logP): 4.32
GPR139; fitted dose-response curve
  Hill Slope: 0.09
GPR139; ligand efficiency
  Efficiency Ligand: 0.48
GPR139; [2]
  pEC50: 7.82

## COc1cc(C(=O)NNC(=O)CCc2c[nH]c3ccccc23)ccc1OC(C)C [SR-01000068919]
Parental HEK cells; HEK Agonist Activity section
  Lipophilic Efficiency (logD): 1.78
  Lipophilic Efficiency (logP): 1.78
  Averaged Max % Response (±St. Dev.): 39.50 ± 8.66%
Parental HEK cells; [3]
  pEC50: < 4.85
GPR139
  Efficiency Ligand: 0.31
  Hill Slope: 0.88
  Lipophilic Efficiency (logD): 3.27
  Lipophilic Efficiency (logP): 3.27
  Averaged Max % Response (±St. Dev.): 93.45 ± 21.44%
GPR139; HEK-GPR139 cells
  pEC50: 6.34

## CCCc1cc(=O)n2[nH]c(NCc3ccccc3F)nc2n1 [SR-01000100493]
Parental HEK cells; HEK Agonist Activity section
  Lipophilic Efficiency (logD): 1.65
  Lipophilic Efficiency (logP): 1.65
  Averaged Max % Response (±St. Dev.): 4.54 ± 3.12%
Parental HEK cells; [4]
  pEC50: < 4.85
GPR139
  Averaged Max % Response (±St. Dev.): 100.68 ± 11.72%
GPR139; based on logD
  Lipophilic Efficiency (logD): 3.60
GPR139; based on logP
  Lipophilic Efficiency (logP): 3.60
GPR139; fitted dose-response curve
  Hill Slope: 0.73
GPR139; ligand efficiency
  Efficiency Ligand: 0.43
GPR139; [2]
  pEC50: 6.80

## Cc1onc(-c2ccccc2Cl)c1C(=O)N1CCC(Cn2ccnc2C)CC1 [SR-01000925002]
Parental HEK cells; HEK Agonist Activity section
  Lipophilic Efficiency (logD): 2.12
  Lipophilic Efficiency (logP): 1.88
  Averaged Max % Response (±St. Dev.): 17.46 ± 3.54%
Parental HEK cells; [4]
  pEC50: < 4.85
GPR139
  Efficiency Ligand: 0.31
  Hill Slope: 0.51
  Lipophilic Efficiency (logD): 3.41
  Lipophilic Efficiency (logP): 3.17
  Averaged Max % Response (±St. Dev.): 86.62 ± 3.28%
GPR139; HEK-GPR139 cells
  pEC50: 6.14

## Cc1[nH]c(=O)[nH]c(=O)c1/C=N\NC(=O)CCc1ccc(OC(C)C)cc1 [SR-01000357697]
Parental HEK cells; HEK Agonist Activity section
  Lipophilic Efficiency (logD): 3.76
  Lipophilic Efficiency (logP): 3.76
  Averaged Max % Response (±St. Dev.): −2.06 ± 7.71%
Parental HEK cells; [3]
  pEC50: < 4.85
GPR139
  Efficiency Ligand: 0.31
  Hill Slope: 1.75
  Lipophilic Efficiency (logD): 4.74
  Lipophilic Efficiency (logP): 4.74
  Averaged Max % Response (±St. Dev.): 87.67 ± 13.61%

## CC1CCC(NC(=O)CCC(=O)N2CCSc3ccccc32)CC1 (stereo not drawn) [SR-01000159110]
Parental HEK cells; HEK Agonist Activity
  Lipophilic Efficiency (logD): 2.25
  Lipophilic Efficiency (logP): 2.25
  Averaged Max % Response (±St. Dev.): 3.44 ± 10.60%
Parental HEK cells; [1]
  pEC50: < 4.85
GPR139
  Averaged Max % Response (±St. Dev.): 95.57 ± 19.71%
GPR139; based on logD
  Lipophilic Efficiency (logD): 5.19
GPR139; based on logP
  Lipophilic Efficiency (logP): 5.19
GPR139; fitted dose-response curve
  Hill Slope: 1.18
GPR139; ligand efficiency
  Efficiency Ligand: 0.45
GPR139; [2]
  pEC50: 7.79

## O=C(COc1ccc2ccccc2c1)NNC(=O)c1cccc([N+](=O)[O-])c1 [SR-01000362228]
Parental HEK cells; HEK Agonist Activity section
  Lipophilic Efficiency (logD): 2.17
  Lipophilic Efficiency (logP): 2.17
  Averaged Max % Response (±St. Dev.): −0.15 ± 6.76%
Parental HEK cells; [4]
  pEC50: < 4.85
GPR139
  Efficiency Ligand: 0.30
  Hill Slope: 1.38
  Lipophilic Efficiency (logD): 3.11
  Lipophilic Efficiency (logP): 3.10
  Averaged Max % Response (±St. Dev.): 84.08 ± 9.93%
GPR139; HEK-GPR139 cells
  pEC50: 5.80

## COc1ccc(CCNC(=O)c2cnc(N3CCCC3CO)s2)cc1 (stereo not drawn) [SR-01000652673]
Parental HEK cells; HEK Agonist Activity
  Lipophilic Efficiency (logD): 2.61
  Lipophilic Efficiency (logP): 2.61
  Averaged Max % Response (±St. Dev.): 3.95 ± 2.97%
Parental HEK cells; [1]
  pEC50: < 4.87
GPR139
  Averaged Max % Response (±St. Dev.): 123.26 ± 12.43%
GPR139; based on logD
  Lipophilic Efficiency (logD): 5.68
GPR139; based on logP
  Lipophilic Efficiency (logP): 5.68
GPR139; fitted dose-response curve
  Hill Slope: 0.93
GPR139; ligand efficiency
  Efficiency Ligand: 0.44
GPR139; [2]
  pEC50: 7.94

## Cc1ccc(CN2CCCN(CC(=O)NC3CCCCCCC3)C2=O)c(Cl)c1 [SR-01000146444]
Parental HEK cells; HEK Agonist Activity section
  Lipophilic Efficiency (logD): 1.38
  Lipophilic Efficiency (logP): 1.38
  Averaged Max % Response (±St. Dev.): 20.98 ± 2.11%
Parental HEK cells; [3]
  pEC50: < 4.85
GPR139
  Averaged Max % Response (±St. Dev.): 112.24 ± 16.06%
GPR139; based on logD
  Lipophilic Efficiency (logD): 3.54
GPR139; based on logP
  Lipophilic Efficiency (logP): 3.54
GPR139; fitted dose-response curve
  Hill Slope: 0.93
GPR139; ligand efficiency
  Efficiency Ligand: 0.35

## CCC1Cc2ccc(C)cc2CC1C(=O)Nc1ccc(-c2cn[nH]c2)cc1OCCN(C)C (stereo not drawn) [SR-00000007138]
Parental HEK cells; HEK Agonist Activity
  Lipophilic Efficiency (logD): 3.12
  Lipophilic Efficiency (logP): 1.76
  Averaged Max % Response (±St. Dev.): 10.53 ± 4.93%
Parental HEK cells; [1]
  pEC50: < 4.85
GPR139
  Averaged Max % Response (±St. Dev.): 109.71 ± 13.62%
GPR139; based on logD
  Lipophilic Efficiency (logD): 5.84
GPR139; based on logP
  Lipophilic Efficiency (logP): 4.48
GPR139; fitted dose-response curve
  Hill Slope: 0.17
GPR139; ligand efficiency
  Efficiency Ligand: 0.31
GPR139; [2]
  pEC50: 7.57

## COc1ccc(CCNC(=O)c2cncc(-c3csc4ccccc34)c2)cc1 [SR-01000654639]
Parental HEK cells; HEK Agonist Activity section
  Lipophilic Efficiency (logD): 0.64
  Lipophilic Efficiency (logP): 0.64
  Averaged Max % Response (±St. Dev.): 1.22 ± 5.69%
Parental HEK cells; [4]
  pEC50: < 4.85
GPR139
  Averaged Max % Response (±St. Dev.): 99.13 ± 2.27%
GPR139; based on logD
  Lipophilic Efficiency (logD): 2.51
GPR139; based on logP
  Lipophilic Efficiency (logP): 2.51
GPR139; fitted dose-response curve
  Hill Slope: 1.05
GPR139; ligand efficiency
  Efficiency Ligand: 0.34
GPR139; [2]
  pEC50: 6.72

## O=c1cc(-c2ccccc2)[nH]c2nc(OCc3cccc([N+](=O)[O-])c3)nn12 [SR-01000289377]
Parental HEK cells; HEK Agonist Activity section
  Lipophilic Efficiency (logD): 1.72
  Lipophilic Efficiency (logP): 1.72
  Averaged Max % Response (±St. Dev.): −0.70 ± 7.45%
Parental HEK cells; [3]
  pEC50: < 4.85
GPR139
  Efficiency Ligand: 0.32
  Hill Slope: 1.25
  Lipophilic Efficiency (logD): 3.01
  Lipophilic Efficiency (logP): 3.01
  Averaged Max % Response (±St. Dev.): 79.17 ± 5.74%
GPR139; HEK-GPR139 cells
  pEC50: 6.14

## COc1ccc2c(CC(=O)NNC(=O)c3cc(-c4ccccc4)no3)coc2c1 [SR-01000074979]
Parental HEK cells; HEK Agonist Activity section
  Lipophilic Efficiency (logD): 2.52
  Lipophilic Efficiency (logP): 2.51
  Averaged Max % Response (±St. Dev.): −0.33 ± 8.51%
Parental HEK cells; [3]
  pEC50: < 4.84
GPR139
  Efficiency Ligand: 0.31
  Hill Slope: 0.80
  Lipophilic Efficiency (logD): 4.03
  Lipophilic Efficiency (logP): 4.03
  Averaged Max % Response (±St. Dev.): 79.45 ± 3.43%
GPR139; HEK-GPR139 cells
  pEC50: 6.36

## O=C(Nc1ccc(-c2cn[nH]c2)cc1OCCN1CCCC1)C1COc2ccc(F)cc2C1.O=C(O)C(F)(F)F.O=C(O)C(F)(F)F (stereo not drawn) [SR-00000005389]
Parental HEK cells; HEK Agonist Activity section
  Lipophilic Efficiency (logD): 2.79
  Lipophilic Efficiency (logP): 1.38
  Averaged Max % Response (±St. Dev.): 31.02 ± 4.14%
Parental HEK cells; [4]
  pEC50: < 4.85
GPR139
  Averaged Max % Response (±St. Dev.): 116.35 ± 10.47%
GPR139; based on logD
  Lipophilic Efficiency (logD): 4.67
GPR139; based on logP
  Lipophilic Efficiency (logP): 3.26
GPR139; fitted dose-response curve
  Hill Slope: 0.77
GPR139; ligand efficiency
  Efficiency Ligand: 0.29
GPR139; [2]
  pEC50: 6.73
